Measured values taken from patent US20230365592A1 (Agios Pharmaceuticals, Inc., priority 2022, published 2023).

Each compound was assayed against T1, human PAH with the R408W mutation (Homo sapiens, UniProt P00439, R408W) (assay: Cell Based Phenylalanine Flux Assay). Conditions: A375 cells expressing R408W PAH; 24 hrs with compound, then 20 µM sepiapterin and 800 µM 13C9,15N-Phenylalanine for 4 hours; 13C-Tyrosine by LC-MS; average where tested multiple times; read-out: AC50.
T1 construct: expressed in transfected cells
T1 sequence (P00439 1-452 R408W): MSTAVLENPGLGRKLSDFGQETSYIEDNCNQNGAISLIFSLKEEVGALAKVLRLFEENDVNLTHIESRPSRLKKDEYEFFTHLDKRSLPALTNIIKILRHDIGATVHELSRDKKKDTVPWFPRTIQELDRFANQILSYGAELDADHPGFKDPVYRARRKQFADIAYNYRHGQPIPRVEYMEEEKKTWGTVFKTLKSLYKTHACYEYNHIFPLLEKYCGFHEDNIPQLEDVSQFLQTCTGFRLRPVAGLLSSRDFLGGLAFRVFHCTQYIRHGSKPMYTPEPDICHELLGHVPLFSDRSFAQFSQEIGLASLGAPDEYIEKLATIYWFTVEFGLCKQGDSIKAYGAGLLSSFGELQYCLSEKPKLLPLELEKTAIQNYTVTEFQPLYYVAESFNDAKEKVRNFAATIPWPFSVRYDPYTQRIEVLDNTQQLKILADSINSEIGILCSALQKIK
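Further: after compound treatment, cells received sepiapterin plus isotope-labelled Phenylalanine for 4 hours, then labelled Tyrosine in the medium was quantified, 10-point 2-fold dilution series run in duplicate.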

| AC50 [nM] | Compound |
| --- | --- |
| > 5000 | FC(F)c1cccc2cc([C@H]3c4nc[nH]c4CCN3c3nnc(C4CCC4)o3)nn12 (single isomer, unassigned) |
| 1000 to 5000 | O=C(c1nnc(C2CC(F)(F)C2)o1)N1CCc2[nH]cnc2C1c1cc2cccc(C(F)(F)F)n2n1 (stereo not drawn) |
| > 5000 | Fc1ncccc1-c1nnc(N2CCc3[nH]cnc3C2c2cc3c(C(F)F)cccn3n2)o1 (stereo not drawn) |
| 1000 to 5000 | Cc1cccc2cc(C3c4nc[nH]c4CCN3C(=O)c3nnc(C4CC(F)(F)C4)o3)nn12 (stereo not drawn) |
| 1000 to 5000 | O=C(c1ccn(-c2ccccn2)n1)N1CCc2[nH]cnc2C1c1cc2c(F)cccn2n1 (stereo not drawn) |
| 1000 to 5000 | Cc1ccc2c(C(=O)N3CCc4[nH]cnc4C3c3cc4cccc(C(F)(F)F)n4n3)cnn2c1 (stereo not drawn) |
| 1000 to 5000 | FC(F)c1cccn2nc(C3c4nc[nH]c4CCN3c3nnc(C4CC(F)(F)C4)o3)cc12 (stereo not drawn) |
| 1000 to 5000 | O=C(c1cnco1)N1CCc2[nH]cnc2C1c1cc2ccccn2n1 (stereo not drawn) |
| 1000 to 5000 | Fc1ccc(-c2nnc(N3CCc4[nH]cnc4C3c3cc4ccccn4n3)o2)nc1 (stereo not drawn) |
| 1000 to 5000 | Cn1cc(-c2nnc(C(=O)N3CCc4[nH]cnc4C3c3cc4cc(F)ccn4n3)o2)cn1 (stereo not drawn) |
| 1000 to 5000 | c1cnc(-c2nnc(N3CCc4[nH]cnc4C3c3cc4ccccn4n3)o2)nc1 (stereo not drawn) |

Same assay, conditions: A375 cells expressing human PAH R408W; 24 hrs compound incubation; 13C-Tyrosine by LC-MS; average where tested multiple times; read-out: AC50

| Compound | AC50 [nM] |
| --- | --- |
| FC(F)(F)c1cnc(N2CCc3[nH]cnc3[C@H]2c2cc3cccc(C(F)(F)F)n3n2)nc1 [Example 1810, (S)-4-(7-(trifluoromethyl)pyrazolo[1,5-a]pyridin-2-yl)-5-(5-(trifluoromethyl)pyrimidin-2-yl)-4,5,6,7-tetrahydro-1H-imidazo[4,5-c]pyridine] | 500 to 1000 |
| Cc1cccn2nc([C@@H]3c4nc[nH]c4CCN3c3nnc(C(C)(C)C)o3)cc12 [Example 1799, (S)-2-(tert-butyl)-5-(4-(4-methylpyrazolo[1,5-a]pyridin-2-yl)-6,7-dihydro-1H-imidazo[4,5-c]pyridin-5(4H)-yl)-1,3,4-oxadiazole] | 500 to 1000 |
| Cc1nnc(N2CCc3[nH]cnc3[C@H]2c2cc3c(C(C)C)cccn3n2)o1 [Example 2083, (S)-2-(4-(4-isopropylpyrazolo[1,5-a]pyridin-2-yl)-1,4,6,7-tetrahydro-5H-imidazo[4,5-c]pyridin-5-yl)-5-methyl-1,3,4-oxadiazole] | < 500 |
| COc1cccn2nc([C@@H]3c4nc[nH]c4CCN3C(=O)c3cnn4cc(C)ccc34)cc12 [Example 2470, (S)-(4-(4-methoxypyrazolo[1,5-a]pyridin-2-yl)-6,7-dihydro-1H-imidazo[4,5-c]pyridin-5(4H)-yl)(6-methylpyrazolo[1,5-a]pyridin-3-yl)methanone] | 1000 to 5000 |

The next lines start with the values.

| AC50 [nM] | Compound |
| --- | --- |
| 1000 to 5000 | Cc1cccn2nc([C@@H]3c4nc[nH]c4CCN3C(=O)c3cnc(-c4ccn(C)n4)o3)cc12 [Example 2499, (S)-(2-(1-methyl-1H-pyrazol-3-yl)oxazol-5-yl)(4-(4-methylpyrazolo[1,5-a]pyridin-2-yl)-1,4,6,7-tetrahydro-5H-imidazo[4,5-c]pyridin-5-yl)methanone] |
| 1000 to 5000 | Cn1nc(C(F)F)nc1C(=O)N1CCc2[nH]cnc2[C@H]1c1cc2cccc(Cl)n2n1 [Example 2396, (S)-(4-(7-chloropyrazolo[1,5-a]pyridin-2-yl)-6,7-dihydro-1H-imidazo[4,5-c]pyridin-5(4H)-yl)(3-(difluoromethyl)-1-methyl-1H-1,2,4-triazol-5-yl)methanone] |
| > 5000 | COc1cccn2nc([C@H]3c4nc[nH]c4CCN3C(=O)c3nnc(-c4cnn(C(F)F)c4)o3)cc12 [Example 2447, (R)-(5-(1-(difluoromethyl)-1H-pyrazol-4-yl)-1,3,4-oxadiazol-2-yl)(4-(4-methoxypyrazolo[1,5-a]pyridin-2-yl)-6,7-dihydro-1H-imidazo[4,5-c]pyridin-5(4H)-yl)methanone] |
| < 500 | CC(C)(C)c1ncc(C(=O)N2CCc3[nH]cnc3[C@H]2c2cc3c(C(F)(F)F)cccn3n2)o1 [Example 2142, (S)-(2-(tert-butyl)oxazol-5-yl)(4-(4-(trifluoromethyl)pyrazolo[1,5-a]pyridin-2-yl)-1,4,6,7-tetrahydro-5H-imidazo[4,5-c]pyridin-5-yl)methanone] |

Same assay, conditions: A375 cells expressing human R408W PAH; 24 hrs compound incubation; 13C-Tyrosine by LC-MS; average where tested multiple times; read-out: AC50

| Compound | AC50 [nM] |
| --- | --- |
| O=C(c1nnc(-c2cnn(C(F)F)c2)o1)N1CCc2[nH]cnc2[C@H]1c1cc2cccc(C(F)(F)F)n2n1 [Example 1040, (S)-(5-(1-(difluoromethyl)-1H-pyrazol-4-yl)-1,3,4-oxadiazol-2-yl)(4-(7-(trifluoromethyl)pyrazolo[1,5-a]pyridin-2-yl)-6,7-dihydro-1H-imidazo[4,5-c]pyridin-5(4H)-yl)methanone] | 500 to 1000 |
| Cc1ccc2cc([C@H]3c4nc[nH]c4CCN3C(=O)c3nnc(-c4ccccn4)o3)nn2c1 [Example 813, (R)-(4-(6-methylpyrazolo[1,5-a]pyridin-2-yl)-6,7-dihydro-1H-imidazo[4,5-c]pyridin-5(4H)-yl)(5-(pyridin-2-yl)-1,3,4-oxadiazol-2-yl)methanone] | > 5000 |
| O=C(c1nnc(-c2ccccn2)o1)N1CCc2[nH]cnc2[C@@H]1c1cc2ccc(F)cn2n1 [Example 1091, (R)-(4-(6-fluoropyrazolo[1,5-a]pyridin-2-yl)-6,7-dihydro-1H-imidazo[4,5-c]pyridin-5(4H)-yl)(5-(pyridin-2-yl)-1,3,4-oxadiazol-2-yl)methanone] | > 5000 |
| O=C(c1nnc(-c2ccn(C(F)(F)F)n2)o1)N1CCc2[nH]cnc2[C@H]1c1cc2cccc(C(F)F)n2n1 [Example 1544, (S)-(4-(7-(difluoromethyl)pyrazolo[1,5-a]pyridin-2-yl)-6,7-dihydro-1H-imidazo[4,5-c]pyridin-5(4H)-yl)(5-(1-(trifluoromethyl)-1H-pyrazol-3-yl)-1,3,4-oxadiazol-2-yl)methanone] | < 500 |
| Cn1nccc1-c1nnc(C(=O)N2CCc3[nH]cnc3[C@H]2c2cc3cccc(C(F)F)n3n2)o1 [Example 1608, (S)-(4-(7-(difluoromethyl)pyrazolo[1,5-a]pyridin-2-yl)-6,7-dihydro-1H-imidazo[4,5-c]pyridin-5(4H)-yl)(5-(1-methyl-1H-pyrazol-5-yl)-1,3,4-oxadiazol-2-yl)methanone] | 500 to 1000 |
| CCOc1cccc2cc([C@@H]3c4nc[nH]c4CCN3C(=O)c3nnc(C(C)(C)F)o3)nn12 [Example 1242, (S)-(4-(7-ethoxypyrazolo[1,5-a]pyridin-2-yl)-6,7-dihydro-1H-imidazo[4,5-c]pyridin-5(4H)-yl)(5-(2-fluoropropan-2-yl)-1,3,4-oxadiazol-2-yl)methanone] | 1000 to 5000 |
| CC(C)(C)c1nnc(C(=O)N2CCc3[nH]cnc3[C@H]2c2cc3cccc(Cl)n3n2)o1 [Example 1123, (S)-(5-(tert-butyl)-1,3,4-oxadiazol-2-yl)(4-(7-chloropyrazolo[1,5-a]pyridin-2-yl)-6,7-dihydro-1H-imidazo[4,5-c]pyridin-5(4H)-yl)methanone] | < 500 |

The remaining lines, values ahead:

| AC50 [nM] | Compound |
| --- | --- |
| 500 to 1000 | Fc1cccn2nc([C@@H]3c4nc[nH]c4CCN3c3nnc(C(F)F)o3)cc12 [Example 1737, (S)-2-(difluoromethyl)-5-(4-(4-fluoropyrazolo[1,5-a]pyridin-2-yl)-6,7-dihydro-1H-imidazo[4,5-c]pyridin-5(4H)-yl)-1,3,4-oxadiazole] |
| > 5000 | CC(C)(F)c1nnc(C(=O)N2CCc3[nH]cnc3[C@@H]2c2cc3c(OC(F)F)cccn3n2)o1 [Example 1729, (R)-(4-(4-(difluoromethoxy)pyrazolo[1,5-a]pyridin-2-yl)-6,7-dihydro-1H-imidazo[4,5-c]pyridin-5(4H)-yl)(5-(2-fluoropropan-2-yl)-1,3,4-oxadiazol-2-yl)methanone] |
| 500 to 1000 | CC(C)(F)c1nc(C(F)F)c(C(=O)N2CCc3[nH]cnc3[C@@H]2c2cc3c(F)cccn3n2)o1 [Example 1227, (R)-(4-(difluoromethyl)-2-(2-fluoropropan-2-yl)oxazol-5-yl)(4-(4-fluoropyrazolo[1,5-a]pyridin-2-yl)-6,7-dihydro-1H-imidazo[4,5-c]pyridin-5(4H)-yl)methanone] |
| < 500 | Cn1cnc(-c2nc(C(F)F)c(C(=O)N3CCc4[nH]cnc4[C@H]3c3cc4c(F)cccn4n3)o2)c1 [Example 921, (S)-(4-(difluoromethyl)-2-(1-methyl-1H-imidazol-4-yl)oxazol-5-yl)(4-(4-fluoropyrazolo[1,5-a]pyridin-2-yl)-6,7-dihydro-1H-imidazo[4,5-c]pyridin-5(4H)-yl)methanone] |
| > 5000 | O=C(c1nnc(N2CCC(F)CC2)o1)N1CCc2[nH]cnc2[C@@H]1c1cc2c(F)cccn2n1 [Example 1015, (R)-(5-(4-fluoropiperidin-1-yl)-1,3,4-oxadiazol-2-yl)(4-(4-fluoropyrazolo[1,5-a]pyridin-2-yl)-6,7-dihydro-1H-imidazo[4,5-c]pyridin-5(4H)-yl)methanone] |
| > 5000 | CC(C)(O)c1nc(C(F)F)c(C(=O)N2CCc3[nH]cnc3[C@@H]2c2cc3ccc(F)cn3n2)o1 [Example 1071, (R)-(4-(difluoromethyl)-2-(2-hydroxypropan-2-yl)oxazol-5-yl)(4-(6-fluoropyrazolo[1,5-a]pyridin-2-yl)-6,7-dihydro-1H-imidazo[4,5-c]pyridin-5(4H)-yl)methanone] |
| > 5000 | COc1cccn2nc([C@H]3c4nc[nH]c4CCN3C(=O)c3cc(C(F)F)nn3C)cc12 [Example 887, (R)-(3-(difluoromethyl)-1-methyl-1H-pyrazol-5-yl)(4-(4-methoxypyrazolo[1,5-a]pyridin-2-yl)-6,7-dihydro-1H-imidazo[4,5-c]pyridin-5(4H)-yl)methanone] |
